Source: patent publication US10399949B2, “NK1 receptor antagonist” (KISSEI PHARMACEUTICAL CO., LTD., priority 2015, dated 2019)

How the values were obtained:
[1] = target: T1, human NK1 receptor (Homo sapiens, UniProt P25103); assay: Inhibitory effect on human NK1 receptor (substance P-induced increase in intracellular calcium concentration); type: cell-based; details: HEK-293T; substance P 0.1 μM; compound 1 μM; human NK1 receptor-expressing 293T cells; vehicle = 100%; read-out: SPRR (%) (Substance P-Response Remaining, intracellular calcium concentration)
T1 construct: expressed in transfected cells; host or cells: 293T cells (RIKEN), transient transfection with pcDNA3.1(-) plasmid
T1 sequence (P25103 whole entry): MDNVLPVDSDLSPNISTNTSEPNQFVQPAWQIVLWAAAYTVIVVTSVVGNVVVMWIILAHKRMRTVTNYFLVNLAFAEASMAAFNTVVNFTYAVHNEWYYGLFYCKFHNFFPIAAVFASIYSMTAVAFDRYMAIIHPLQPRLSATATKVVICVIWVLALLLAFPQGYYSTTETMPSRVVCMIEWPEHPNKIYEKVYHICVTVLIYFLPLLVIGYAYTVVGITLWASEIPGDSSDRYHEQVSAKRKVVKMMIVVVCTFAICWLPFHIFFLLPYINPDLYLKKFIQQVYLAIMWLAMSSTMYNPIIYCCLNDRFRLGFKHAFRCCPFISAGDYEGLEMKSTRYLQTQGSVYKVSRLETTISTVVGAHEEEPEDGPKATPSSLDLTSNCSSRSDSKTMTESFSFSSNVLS
Experimental: Inhibitory Effect on Human NK1 Receptor
(1) Preparation of Human NK1 Receptor-Expressing Cells
Human NK1 receptor-expressing cells were prepared by the same methods as those described in 2-3 and 2-4 of Test Example 1.
(2) Study on Inhibitory Effect on Increase in Intracellular Calcium Concentration
The human NK1 receptor-expressing cells were washed with 300 μL/well of a washing solution (20 mM HEPES/Hanks Balanced Salt Solution (HBSS) pH7.3). A fluorescent calcium indicator (Fluo-4 Direct Calcium Assay Kit, Life Technologies, containing 0.42 mM probenecid and 0.1% bovine serum albumin, prepared according to the protocol of the product) was added to the wells at 150 μL/well, and the plate was incubated at 37° C. for 30 minutes in an incubator. Then, DMSO solutions of a test compound, which were prepared at an 80-time higher concentration using 100% dimethyl sulfoxide (DMSO), were added to the wells at 2.5 μL/well (final concentrations of 0.1, 1 and 10 μM), and the solutions were mixed. Then, the plate was further incubated at 37° C. for 30 minutes in an incubator. After 30 minutes, the intracellular calcium concentrations were measured immediately.
The intracellular calcium concentrations were each measured as a fluorescent signal using FDSS® 7000 (Hamamatsu Photonics). A substance P (Peptide Institute, Inc.) solution which was prepared at 0.4 μM or 4 μM using an assay buffer (20 mM HEPES/Hanks Balanced Salt Solution (HBSS) pH 7.3 containing 0.1% bovine serum albumin) was added automatically to each well at 50 μL/well (final concentration of 0.1 or 1 μM) 10 seconds after starting reading, and the fluorescent signal was measured up to 120 seconds.
The intracellular calcium concentration (%) of the cells to which a test compound was added was calculated by the equation below, where the fluorescent signal of the group to which the vehicle (DMSO) was added was regarded as 100%, and the fluorescent signal before the addition of substance P was regarded as 0%. Intracellular calcium concentration (%)=(Fluorescent signal of test compound addition group)/(Fluorescent signal of vehicle addition group)×100
The intracellular calcium concentration (%) calculated was regarded as the remaining agonist activity of substance P (Substance P-Response Remaining: SPRR). In the table, Ex. No. means the Example number. SPRR (%) means the value obtained when the concentration of substance P was 0.1 μM and the concentration of the compound was 1 μM.

[2] = target: T1, human NK1 receptor; assay: Affinity for human NK1 receptor (125I-substance P receptor binding test, membrane fraction); details: membrane fraction of human NK1 receptor-expressing 293T cells, room temperature 60 minutes, read-out: pIC50 (inverse logarithm of the concentration required for 50% inhibition of 125I-substance P binding) (converted)
Experimental: Affinity for Human NK1 Receptor
(3) Measurement of Binding Affinity to Human NK1 Receptor
(3-1) Preparation of Membrane Fraction from Human NK1 Receptor-Expressing Cells
Human NK1 receptor-expressing cells were prepared in a 175 cm^2 culture flask (Nippon Becton Dickinson). The formation of a complex of the human NK1 receptor expression plasmid and Lipofectamine 2000 was performed by calculating the culture area ratio and increasing the scale of the method described in the above 2-4 by the ratio. The human NK1 receptor-expressing cells were collected in a buffer solution for the membrane fraction preparation (50 mM Tris (Wako Pure Chemical), 120 mM sodium chloride (Wako Pure Chemical Industries), 5 mM potassium chloride (Wako Pure Chemical Industries), 1 mM ethylenediaminetetraacetic acid (Sigma), 0.002 mg/mL chymostatin (Peptide Institute), 0.04 mg/bacitracin (Wako Pure Chemical Industries), 0.005 mg/mL phosphoramidon (Peptide Institute) and 0.5 mM phenylmethylsulfonyl fluoride (Wako Pure Chemical Industries), pH7.4) and centrifuged at 1,880 g for 10 minutes, and the cell sediment was suspended in the buffer solution for the membrane fraction preparation. After freezing and thawing the cells once, the cells were homogenized using a Dounce-type homogenizer (cooled on ice, 1000 rpm, 20 times). The homogenized cell suspension was centrifuged at 20,000 rpm for 10 minutes, and the supernatant was removed to obtain cell sediment. The cell sediment was suspended again in the buffer solution for the membrane fraction preparation and homogenized using a Dounce-type homogenizer (cooled on ice, 1000 rpm, 30 times). The cell suspension was centrifuged at 20,000 rpm for 10 minutes, and the supernatant was removed to obtain cell sediment. The same homogenization and centrifugation were repeated again, and final cell sediment was obtained. The final cell sediment was suspended in a buffer solution for the receptor binding test (50 mM Tris (Wako Pure Chemical Industries), 3 mM manganese chloride (Wako Pure Chemical Industries), 0.002 mg/mL chymostatin (Peptide Institute), 0.04 mg/bacitracin (Wako Pure Chemical Industries) and 0.02% bovine serum albumin (Sigma), pH 7.4), and the protein concentration was measured using BCA Protein Assay Kit (Pierce).
(3-2) Receptor Binding Test
The buffer solution for the receptor binding test was dispensed to the wells of a 96-well assay plate (Greiner) at 22.5 μL/well. DMSO solutions of a test compound, which were prepared at an 80-time higher concentration using 100% dimethyl sulfoxide (DMSO), were added to the wells at 2.5 μL/well (final concentrations of 1 nM to 100 nM), and the solutions were mixed. As a radiolabeled ligand, ^125I-substance P (Substance P, [^125I]Tyr^8-, PerkinElmer) was used. ^125I-substance P was diluted with the buffer solution for the receptor binding test to a concentration resulting in […] and added to the 96-well assay plate, and the solutions were mixed. The membrane fraction prepared from the human NK1 receptor-expressing cells was diluted with the buffer solution for the receptor binding test to a concentration resulting in 8 to 10 μg/well, suspended until the suspension became in such a homogenous state that the suspension could flow through a 27G injection needle smoothly and then added to the 96-well assay plate at 150 μL/well. Then, the plate was incubated at room temperature for 60 minutes while shaking the plate. […]

[3] = target: T2, human CYP3A4 (Homo sapiens, UniProt P08684); assay: Inhibitory effect on CYP3A4 (Luciferin-IPA); type: in vitro ADME; details: test compound 10 μM, 30-minutes pre-incubation, Luciferin-IPA 3 μM
T2 construct: purchased BD Biosciences
T2 sequence (P08684 whole entry): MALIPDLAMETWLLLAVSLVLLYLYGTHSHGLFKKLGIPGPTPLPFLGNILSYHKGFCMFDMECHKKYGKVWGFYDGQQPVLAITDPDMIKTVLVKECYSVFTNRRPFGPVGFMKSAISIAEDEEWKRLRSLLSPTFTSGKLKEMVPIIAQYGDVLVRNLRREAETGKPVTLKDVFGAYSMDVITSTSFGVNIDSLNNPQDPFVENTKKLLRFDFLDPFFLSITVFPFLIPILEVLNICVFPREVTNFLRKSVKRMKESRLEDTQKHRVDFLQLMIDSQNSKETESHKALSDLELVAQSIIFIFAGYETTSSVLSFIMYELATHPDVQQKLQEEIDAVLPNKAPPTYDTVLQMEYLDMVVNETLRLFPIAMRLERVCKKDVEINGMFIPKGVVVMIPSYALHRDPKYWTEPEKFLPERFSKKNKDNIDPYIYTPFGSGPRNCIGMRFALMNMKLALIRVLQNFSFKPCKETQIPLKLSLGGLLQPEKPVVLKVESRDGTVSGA
Experimental: Inhibitory Effect on CYP3A4
The dimethyl sulfoxide (DMSO) solution of the test compound with a concentration 1000 times higher than the evaluation concentration was prepared, and a reaction solution was prepared by diluting the solution. Enzyme reaction was performed by incubating in a potassium phosphate buffer solution (pH 7.4) containing 1 μM to 10 μM test compound, 3.2 mM magnesium chloride, 0.2 pmol human CYP3A4 (BD Biosciences), 0.5 mM reduced nicotinamide adenine dinucleotide phosphate (NADPH) and 3 μM Luciferin-IPA (Promega) at 37° C. for 10 minutes. The volume of the reaction solution was 50 μL/well. The 30-minutes pre-incubation group was incubated at 37° C. for 30 minutes before adding the substrate, the Luciferin-IPA solution (12.5 μL/well). At the end of the enzyme reaction, 50 μL/well of a Luciferin detection reagent (Promega) was added to the wells, and the plate was left at room temperature for 20 minutes. Then, the emission intensities were measured with Infinite M1000 (TECAN), and the enzyme activities (%) relative to the value of the group to which the test compound was not added. As a comparative example, aprepitant, which is an NK1 receptor antagonist, was tested in the same manner.
Test was measured by the above test method, and the results are shown in Table 9 when the concentration of the test compound was 10 μM. In the table, Ex. No. means the Example number, and Pre-incubation (30 min) (%) means the enzyme activities (%) of the 30-minutes pre-incubation groups using the test compounds.

Row | Compound | remaining activity at 1 µM [1] [%] | IC50 [2] [nM] | Preincubation (30 min) (%) (enzyme activities relative to group without test compound) [3]
1 | Cc1cc(F)ccc1[C@H]1CN(C2CCC(C(=O)O)CC2)CCN1C(=O)N(C)[C@H](C)c1cc(C(F)(F)F)cc(C(F)(F)F)c1 (stereo partly drawn) [Example 6, 4-[(S)-4-{[(R)-1-(3,5-Bistrifluoromethylphenyl)ethyl]methylcarbamoyl}-3-(4-fluoro-2-methylphenyl)piperazin-1-yl]cyclohexanecarboxylic acid] | 14 | 1.7 | –
2 | Cc1cc(F)ccc1[C@H]1CN(C(=O)[C@H]2CC[C@@H](CC(=O)O)CC2)CCN1C(=O)N(C)[C@H](C)c1cc(C(F)(F)F)cc(C(F)(F)F)c1 [Example 2, cis-{4-[(S)-4-{[(R)-1-(3,5-Bistrifluoromethylphenyl)ethyl]methylcarbamoyl}-3-(4-fluoro-2-methylphenyl)piperazine-1-carbonyl]cyclohexyl}acetic acid] | 25 | 1.38 | –
3 | Cc1cc(F)ccc1[C@H]1CN(C[C@H]2CC[C@@H](C(=O)O)CC2)CCN1C(=O)N(C)[C@H](C)c1cc(C(F)(F)F)cc(C(F)(F)F)c1 [Example 7, cis-4-[(S)-4-{[(R)-1-(3,5-Bistrifluoromethylphenyl)ethyl]methylcarbamoyl}-3-(4-fluoro-2-methylphenyl)piperazin-1-ylmethyl]cyclohexanecarboxylic acid] | 6.6 | 2.04 | –
4 | Cc1cc(F)ccc1[C@H]1CN(C2CCC(CC(=O)O)CC2)CCN1C(=O)N(C)[C@H](C)c1cc(C(F)(F)F)cc(C(F)(F)F)c1 (stereo partly drawn) [Example 1, {4-[(S)-4-{[(R)-1-(3,5-Bistrifluoromethylphenyl)ethyl]methylcarbamoyl}-3-(4-fluoro-2-methylphenyl)piperazin-1-yl]cyclohexyl}acetic acid] | 15 | 2.24 | –
5 | Cc1cc(F)ccc1[C@H]1CN(C(=O)[C@H]2CC[C@H](CC(=O)O)CC2)CCN1C(=O)N(C)[C@H](C)c1cc(C(F)(F)F)cc(C(F)(F)F)c1 [Example 3, trans-{4-[(S)-4-{[(R)-1-(3,5-Bistrifluoromethylphenyl)ethyl]methylcarbamoyl}-3-(4-fluoro-2-methylphenyl)piperazine-1-carbonyl]cyclohexyl}acetic acid] | 50 | 1.41 | –
6 | C[C@@H](O[C@H]1OCCN(Cc2n[nH]c(=O)[nH]2)[C@H]1c1ccc(F)cc1)c1cc(C(F)(F)F)cc(C(F)(F)F)c1 [Aprepitant, aprepitant, reference compound] | – | – | 1.3
7 | Cc1cc(F)ccc1[C@H]1CN(C[C@H]2CC[C@H](C(=O)O)CC2)CCN1C(=O)N(C)[C@H](C)c1cc(C(F)(F)F)cc(C(F)(F)F)c1 [Example 8, trans-4-[(S)-4-{[(R)-1-(3,5-Bistrifluoromethylphenyl)ethyl]methylcarbamoyl}-3-(4-fluoro-2-methylphenyl)piperazin-1-ylmethyl]cyclohexanecarboxylic acid] | 14 | 1.86 | –

Other lines, results leading:

Row | remaining activity at 1 µM [1] [%] | IC50 [2] [nM] | Preincubation (30 min) (%) (enzyme activities relative to group without test compound) [3] | Compound
8 | 24 | 1.91 | – | Cc1cc(F)ccc1[C@H]1CN(CC23CC(C(=O)O)(C2)C3)CCN1C(=O)N(C)[C@H](C)c1cc(C(F)(F)F)cc(C(F)(F)F)c1 [Example 11, 3-[(S)-4-{[(R)-1-(3,5-Bistrifluoromethylphenyl)ethyl]methylcarbamoyl}-3-(4-fluoro-2-methylphenyl)piperazin-1-ylmethyl]bicyclo[1.1.1]pentane-1-carboxylic acid]
9 | 30 | 1.17 | – | Cc1cc(F)ccc1[C@H]1CN(C(=O)N2CCC(CC(=O)O)CC2)CCN1C(=O)N(C)[C@H](C)c1cc(C(F)(F)F)cc(C(F)(F)F)c1 [Example 10, {1-[(S)-4-{[(R)-1-(3,5-Bistrifluoromethylphenyl)ethyl]methylcarbamoyl}-3-(4-fluoro-2-methylphenyl)piperazine-1-carbonyl]piperidin-4-yl}acetic acid]
10 | 4.9 | 0.282 | – | Cc1cc(F)ccc1[C@H]1CN(C2CCC(CC(=O)O)CC2)CC[C@@H]1C(=O)N(C)[C@@H](C)c1cc(C(F)(F)F)cc(C(F)(F)F)c1 (stereo partly drawn) [Example 12, {4-[(3 S,4S)-4-{[(S)-1-(3,5-Bistrifluoromethylphenyl)ethyl]methylcarbamoyl}-3-(4-fluoro-2-methylphenyl)piperidin-1-yl]cyclohexyl}lacetic acid]
11 | 38 | 1.55 | – | Cc1cc(F)ccc1[C@H]1CN(Cc2ccc(CC(=O)O)cc2)CCN1C(=O)N(C)[C@H](C)c1cc(C(F)(F)F)cc(C(F)(F)F)c1 [Example 9, {4-[(S)-4-{[(R)-1-(3,5-Bistrifluoromethylphenyl)ethyl]methylcarbamoyl}-3-(4-fluoro-2-methylphenyl)piperazin-1-ylmethyl]phenyl}acetic acid]
